Results from patent US20140296479A1, “D-APTIDE AND RETRO-INVERSO APTIDE WITH MAINTAINED TARGET AFFINITY AND IMPROVED STABILITY” (GWANGJU INSTITUTE OF SCIENCE AND TECHNOLOGY, priority 2011, published 2014).
One block for each molecule: values may come before it. Where a SMILES comes first, the peptide text is derived from it. Where no end group is shown, it is not given here. [ ]: non-standard residue; d: D form.

Assays:
VEGF121 [1] = target: T1, VEGF121 (Homo sapiens, UniProt P15692); test: BIAcore X (SPR) affinity for VEGF; format: binding
T1 sequence (P15692 27-147 isoform P15692-9): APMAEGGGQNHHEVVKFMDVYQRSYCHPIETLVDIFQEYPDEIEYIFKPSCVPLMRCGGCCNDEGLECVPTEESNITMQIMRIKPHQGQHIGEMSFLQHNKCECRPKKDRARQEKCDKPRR
Method: (§1) To investigate whether the activity is maintained where Aptamer-Like Peptides specifically binding to VEGF (Vascular endothelial growth factor), i.e., L-Aptide1VEGF are converted into D- and Retro inverso (RI)-form, their affinity to a target was measured. Firstly, 3 peptides, L-Aptide1VEGF ([…], all L-amino acids, SEQ ID NO:23), D-Aptide1VEGF ([…], all D-amino acids, SEQ ID NO:23) and RI-Aptide1VEGF ([…], all D-amino acids), were synthesized by Anigen Inc. (Korea). Their affinity for a target was determined using BIAcore X (Biacore AB, Uppsala, Sweden). VEGF121 of 3000 RU was immobilized on CM5 chip (Biacore). A PBS (pH 7.4) was used as a running buffer, a flow rate was 30 μl/min, and the affinity was determined with BIAevaluation software (Biacore AB, Uppsala, Sweden) after measuring kinetics of various concentrations.

[2] = target: HSA (Human serum albumin) (Homo sapiens, UniProt P02768); test: BIAcore X (SPR) affinity for HSA; format: binding; details: for kon: PBS pH 7.4, read-out: ka
Method: as §1, with “HSA (Human serum albumin),” for “VEGF (Vascular endothelial growth factor),”, “L-AptideHSA” for “L-Aptide1VEGF”, “NO:42), D-AptideHSA” for “NO:23), D-Aptide1VEGF”, “NO:42)” for “NO:23)”, “RI-AptideHSA” for “RI-Aptide1VEGF”, “HSA” for “VEGF121”

fibronectin EDB = target: T2, fibronectin EDB (Homo sapiens, UniProt P02751); test: BIAcore X (SPR) affinity for fibronectin EDB; format: binding
T2 construct: Biotin-EDB of 2000 RU was immobilized on streptavidin SA chip
Method: To investigate whether the activity is maintained where Aptamer-Like Peptides specifically binding to fibronectin EDB, i.e., L-Aptide1EDB are converted into D- and Retro inverso (RI)-form, their affinity to a target was measured. Firstly, 3 peptides, L-Aptide1EDB ([…], all L-amino acids, SEQ ID NO:21), D-Aptide1EDB ([…], all D-amino acids, SEQ ID NO:21) and RI-Aptide1EDB ([…], all D-amino acids), were synthesized by Anigen Inc. (Korea). Their affinity for a target was determined using BIAcore X (Biacore AB, Uppsala, Sweden). Biotin-EDB of 2000 RU was immobilized on streptavidin SA chip (Biacore). A PBS (pH 7.4) was used as a running buffer, a flow rate was 30 μl/min, and the affinity was determined with BIAevaluation software (Biacore AB, Uppsala, Sweden) after measuring kinetics of various concentrations.

[3] = target: T3, HSA (Human serum albumin) (human, UniProt P02768 25-609); test: SPR, BIAcore X; HSA on CM5 chip, peptide as analyte
T3 construct: HSA, 3000 RU, immobilised on a CM5 chip; also called HAS
Method: To investigate whether the activity is maintained where Aptamer-Like Peptides specifically binding to HSA (Human serum albumin), i.e., L-AptideHSA are converted into D- and Retro inverso (RI)-form, their affinity to a target was measured. Firstly, 3 peptides, L-AptideHSA ([…], all L-amino acids, SEQ ID NO:42), D-AptideHSA ([…], all D-amino acids, SEQ ID NO:42) and RI-AptideHSA ([…], all D-amino acids), were synthesized by Anigen Inc. (Korea). Their affinity for a target was determined using BIAcore X (Biacore AB, Uppsala, Sweden). HSA of 3000 RU was immobilized on CM5 chip (Biacore).

VEGF121 [4] = target: T4, VEGF121 (UniProt P15692-9 27-147); test: SPR, BIAcore X; VEGF121 on CM5 chip, peptide as analyte
T4 construct: VEGF121, 3000 RU, immobilised on a CM5 chip; also called Vascular endothelial growth factor
T4 sequence (looked up): T1 sequence (P15692 27-147 isoform P15692-9)
Method: as §1, with “VEGF₁₂₁” for “VEGF121”, “(Biacore).” for “(Biacore). A PBS (pH 7.4) was used as a running buffer, a flow rate was 30 μl/min, and the affinity was determined with BIAevaluation software (Biacore AB, Uppsala, Sweden) after measuring kinetics of various concentrations.”

[5] = VEGF121 on CM5 chip, PBS pH 7.4
[6] = biotin-EDB on SA chip, PBS pH 7.4

T3 sequence (P02768 25-609 limits assumed): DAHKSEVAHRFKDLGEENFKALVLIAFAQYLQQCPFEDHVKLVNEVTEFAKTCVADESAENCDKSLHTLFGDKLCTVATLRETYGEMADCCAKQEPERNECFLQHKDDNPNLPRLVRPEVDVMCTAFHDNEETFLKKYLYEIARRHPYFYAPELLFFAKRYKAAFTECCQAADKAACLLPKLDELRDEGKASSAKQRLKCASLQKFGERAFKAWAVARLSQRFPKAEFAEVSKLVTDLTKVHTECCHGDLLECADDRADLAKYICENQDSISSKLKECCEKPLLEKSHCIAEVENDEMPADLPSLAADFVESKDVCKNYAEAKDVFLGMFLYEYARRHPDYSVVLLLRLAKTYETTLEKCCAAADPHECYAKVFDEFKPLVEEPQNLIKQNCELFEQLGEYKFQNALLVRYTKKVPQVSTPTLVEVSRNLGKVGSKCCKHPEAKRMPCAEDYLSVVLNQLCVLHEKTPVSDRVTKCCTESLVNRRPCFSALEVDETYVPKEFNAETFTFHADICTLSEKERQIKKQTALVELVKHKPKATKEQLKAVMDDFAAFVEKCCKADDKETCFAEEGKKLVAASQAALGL

binding to target, in words (VEGF121 [1]): barely bound | Kd (VEGF121 [1]; [5]): Non-binding | ka (VEGF121 [1]; [5]): Non-binding | kd (VEGF121 [1]; [5]): Non-binding
Molecule: SQNYKWGKWTWKGNEWTWSGQFFNAH [RI-Aptide1VEGF]

Molecule: CC[C@@H](C)[C@@H](NC(=O)CNC(=O)[C@@H](CCCCN)NC(=O)[C@@H](Cc1c[nH]c2ccccc12)NC(=O)[C@H](NC(=O)[C@@H](Cc1c[nH]c2ccccc12)NC(=O)[C@@H](CCCCN)NC(=O)CNC(=O)[C@@H](CC(N)=O)NC(=O)[C@@H](CCC(=O)O)NC(=O)[C@@H](Cc1c[nH]c2ccccc12)NC(=O)[C@H](NC(=O)[C@@H](Cc1c[nH]c2ccccc12)NC(=O)[C@@H](CO)NC(=O)CNC(=O)[C@@H](Cc1ccccc1)NC(=O)[C@@H](CC(N)=O)NC(=O)[C@@H](Cc1ccccc1)NC(=O)[C@@H](Cc1c[nH]cn1)NC(=O)[C@@H](C)NC(=O)[C@H](N)Cc1c[nH]cn1)[C@H](C)O)[C@H](C)O)C(=O)N[C@H](Cc1c[nH]c2ccccc12)C(=O)N[C@H](CC(C)C)C(=O)N1CCC[C@@H]1C(=O)N[C@H](C)C(=O)N[C@H](CCCNC(=N)N)C(=O)O [D-AptideHSA] (H-[dH][dA][dH][dF][dN][dF]G[dS][dW][dT][dW][dE][dN]G[dK][dW][dT][dW][dK]G[dI][dW][dL][dP][dA][dR]-OH; N-terminus and C-terminus assumed)
kd ([2]; HSA on CM5 chip, PBS pH 7.4): 0.014 s⁻¹ | kon ([2]; HSA on CM5 chip): 97000 M⁻¹ s⁻¹

Molecule: CC[C@H](C)[C@H](NC(=O)CNC(=O)[C@H](CCCCN)NC(=O)[C@H](Cc1c[nH]c2ccccc12)NC(=O)[C@@H](NC(=O)[C@H](Cc1c[nH]c2ccccc12)NC(=O)[C@H](CCCCN)NC(=O)CNC(=O)[C@H](CC(N)=O)NC(=O)[C@H](CCC(=O)O)NC(=O)[C@H](Cc1c[nH]c2ccccc12)NC(=O)[C@@H](NC(=O)[C@H](Cc1c[nH]c2ccccc12)NC(=O)[C@H](CO)NC(=O)CNC(=O)[C@H](Cc1ccccc1)NC(=O)[C@H](CC(N)=O)NC(=O)[C@H](Cc1ccccc1)NC(=O)[C@H](Cc1c[nH]cn1)NC(=O)[C@H](C)NC(=O)[C@@H](N)Cc1c[nH]cn1)[C@@H](C)O)[C@@H](C)O)C(=O)N[C@@H](Cc1c[nH]c2ccccc12)C(=O)N[C@@H](CC(C)C)C(=O)N1CCC[C@H]1C(=O)N[C@@H](C)C(=O)N[C@@H](CCCNC(=N)N)C(=O)O [L-AptideHSA] (H-HAHFNFGSWTWENGKWTWKGIWLPAR-OH; N-terminus and C-terminus assumed)
kd ([2]; HSA on CM5 chip, PBS pH 7.4): 0.013 s⁻¹ | kon ([2]; HSA on CM5 chip): 95000 M⁻¹ s⁻¹

Molecule: CC[C@@H](C)[C@@H](NC(=O)[C@@H](Cc1c[nH]c2ccccc12)NC(=O)[C@@H](CC(C)C)NC(=O)[C@H]1CCCN1C(=O)[C@@H](C)NC(=O)[C@H](N)CCCNC(=N)N)C(=O)NCC(=O)N[C@H](CCCCN)C(=O)N[C@H](Cc1c[nH]c2ccccc12)C(=O)N[C@@H](C(=O)N[C@H](Cc1c[nH]c2ccccc12)C(=O)N[C@H](CCCCN)C(=O)NCC(=O)N[C@H](CC(N)=O)C(=O)N[C@H](CCC(=O)O)C(=O)N[C@H](Cc1c[nH]c2ccccc12)C(=O)N[C@@H](C(=O)N[C@H](Cc1c[nH]c2ccccc12)C(=O)N[C@H](CO)C(=O)NCC(=O)N[C@H](Cc1ccccc1)C(=O)N[C@H](CC(N)=O)C(=O)N[C@H](Cc1ccccc1)C(=O)N[C@H](Cc1c[nH]cn1)C(=O)N[C@H](C)C(=O)N[C@H](Cc1c[nH]cn1)C(=O)O)[C@H](C)O)[C@H](C)O [RI-AptideHSA] (H-[dR][dA][dP][dL][dW][dI]G[dK][dW][dT][dW][dK]G[dN][dE][dW][dT][dW][dS]G[dF][dN][dF][dH][dA][dH]-OH; N-terminus and C-terminus assumed)
Kd ([2]; HSA on CM5 chip, PBS pH 7.4): 0.141 µM | kd ([2]; HSA on CM5 chip, PBS pH 7.4): 0.0082 s⁻¹ | kon ([2]; HSA on CM5 chip): 58000 M⁻¹ s⁻¹ | binding to target, in words ([2]; compared with L-Aptide): affinity similar to L-Aptide

Molecule: CC[C@@H](C)[C@@H](NC(=O)[C@@H](CCCNC(=N)N)NC(=O)[C@@H](CC(C)C)NC(=O)[C@@H](CCC(=O)O)NC(=O)[C@H](N)CCC(N)=O)C(=O)N[C@@H](C(=O)NCC(=O)N[C@H](CCCCN)C(=O)N[C@H](Cc1c[nH]c2ccccc12)C(=O)N[C@@H](C(=O)N[C@H](Cc1c[nH]c2ccccc12)C(=O)N[C@H](CCCCN)C(=O)NCC(=O)N[C@H](CC(N)=O)C(=O)N[C@H](CCC(=O)O)C(=O)N[C@H](Cc1c[nH]c2ccccc12)C(=O)N[C@@H](C(=O)N[C@H](Cc1c[nH]c2ccccc12)C(=O)N[C@H](CO)C(=O)NCC(=O)N[C@@H](C(=O)N[C@H](C)C(=O)N[C@H](CO)C(=O)N[C@H](CO)C(=O)N[C@H](CS)C(=O)N[C@H](Cc1c[nH]cn1)C(=O)O)C(C)C)[C@H](C)O)[C@H](C)O)[C@H](C)CC [RI-Aptide1EDB] (H-[dQ][dE][dL][dR][dI][dI]G[dK][dW][dT][dW][dK]G[dN][dE][dW][dT][dW][dS]G[dV][dA][dS][dS][dC][dH]-OH; N-terminus and C-terminus assumed)
Kd (fibronectin EDB; [6]): 0.058 µM | koff (dissociation rate constant) (fibronectin EDB; [6]): 0.0011 s⁻¹ | kon (fibronectin EDB; biotin-EDB on SA chip, PBS pH 7.4, read-out: ka): 19000 M⁻¹ s⁻¹ | binding to target, in words (fibronectin EDB; compared with L-Aptide): affinity similar to L-Aptide

Kd [3]: 0.153 µM | koff [3]: 0.014 s⁻¹
Molecule: [dH][dA][dH][dF][dN][dF]G[dS][dW][dT][dW][dE][dN]G[dK][dW][dT][dW][dK]G[dI][dW][dL][dP][dA][dR] (designed binder) [D-AptideHSA]

koff (VEGF121 [4]): 0.0066 s⁻¹
Molecule: [dH][dA][dN][dF][dF][dQ]G[dS][dW][dT][dW][dE][dN]G[dK][dW][dT][dW][dK]G[dW][dK][dY][dN][dQ][dS] (designed binder) [D-Aptide1VEGF]

Kd (VEGF121 [4]): 0.03 µM | koff (VEGF121 [4]): 0.01 s⁻¹
B1: L-Aptide1VEGF (designed binder)
peptide: HANFFQGSWTWENGKWTWKGWKYNQS
notes: Synthetic 26-mer, all L-amino acids; also called L-AptideVEGF; Aptide1VEGF (L-form)

Kd [3]: 0.142 µM | koff [3]: 0.013 s⁻¹
B2: L-AptideHSA (designed binder)
peptide: HAHFNFGSWTWENGKWTWKGIWLPAR
notes: Synthetic 26-mer, all L-amino acids; also called AptideHSA (L-form)

koff [3]: 0.0082 s⁻¹
Molecule: [dR][dA][dP][dL][dW][dI]G[dK][dW][dT][dW][dK]G[dN][dE][dW][dT][dW][dS]G[dF][dN][dF][dH][dA][dH] (designed binder) [RI-AptideHSA]
